Measurements reported in patent US12390508B2, “Brain natriuretic peptide engrafted antibodies” (Boehringer Ingelheim International GmbH, priority 2018, dated 2025).
Positions of bridges follow the written chain, without caps; N, C: chain ends. Residues, ends and D or L forms follow the SMILES beside them.

Assays:
[1] = molecular target: T1, neutral endopeptidase (NEP) (Homo sapiens, UniProt P08473); test: Sensitivity towards proteolytic degradation by neutral endopeptidase (NEP); assay type: in vitro ADME; conditions: 4 hours incubation with 0.6 μg/ml NEP at 37° C., then activity on the rat receptor cell line
T1 construct: purchased R&D Systems 1182-ZNC
T1 sequence (P08473 52-750 limits assumed): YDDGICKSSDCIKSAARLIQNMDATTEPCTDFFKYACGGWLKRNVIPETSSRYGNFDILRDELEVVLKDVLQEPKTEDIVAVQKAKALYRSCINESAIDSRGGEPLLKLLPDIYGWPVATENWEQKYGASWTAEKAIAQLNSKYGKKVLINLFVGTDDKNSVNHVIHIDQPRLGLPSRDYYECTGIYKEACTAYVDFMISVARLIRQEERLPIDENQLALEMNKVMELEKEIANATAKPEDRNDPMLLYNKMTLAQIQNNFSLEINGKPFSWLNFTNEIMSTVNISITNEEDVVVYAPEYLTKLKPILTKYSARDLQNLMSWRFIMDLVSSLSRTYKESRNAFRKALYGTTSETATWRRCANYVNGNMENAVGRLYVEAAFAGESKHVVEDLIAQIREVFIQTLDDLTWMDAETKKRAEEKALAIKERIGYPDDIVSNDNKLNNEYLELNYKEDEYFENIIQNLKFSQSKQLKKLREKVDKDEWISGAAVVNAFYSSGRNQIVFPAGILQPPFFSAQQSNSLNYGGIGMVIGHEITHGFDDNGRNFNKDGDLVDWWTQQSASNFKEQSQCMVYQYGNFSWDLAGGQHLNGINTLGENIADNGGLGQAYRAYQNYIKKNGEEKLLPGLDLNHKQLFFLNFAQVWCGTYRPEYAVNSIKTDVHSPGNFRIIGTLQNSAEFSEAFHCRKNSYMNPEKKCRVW

[2] = molecular target: T2, insulin degrading enzyme (IDE) (Rattus norvegicus, UniProt P35559); test: Sensitivity towards proteolytic degradation by insulin degrading enzyme (IDE); conditions: 4 hours incubation with 0.6 μg/ml IDE at 37° C., then activity on the rat receptor cell line
T2 sequence (P35559 42-1019 limits assumed): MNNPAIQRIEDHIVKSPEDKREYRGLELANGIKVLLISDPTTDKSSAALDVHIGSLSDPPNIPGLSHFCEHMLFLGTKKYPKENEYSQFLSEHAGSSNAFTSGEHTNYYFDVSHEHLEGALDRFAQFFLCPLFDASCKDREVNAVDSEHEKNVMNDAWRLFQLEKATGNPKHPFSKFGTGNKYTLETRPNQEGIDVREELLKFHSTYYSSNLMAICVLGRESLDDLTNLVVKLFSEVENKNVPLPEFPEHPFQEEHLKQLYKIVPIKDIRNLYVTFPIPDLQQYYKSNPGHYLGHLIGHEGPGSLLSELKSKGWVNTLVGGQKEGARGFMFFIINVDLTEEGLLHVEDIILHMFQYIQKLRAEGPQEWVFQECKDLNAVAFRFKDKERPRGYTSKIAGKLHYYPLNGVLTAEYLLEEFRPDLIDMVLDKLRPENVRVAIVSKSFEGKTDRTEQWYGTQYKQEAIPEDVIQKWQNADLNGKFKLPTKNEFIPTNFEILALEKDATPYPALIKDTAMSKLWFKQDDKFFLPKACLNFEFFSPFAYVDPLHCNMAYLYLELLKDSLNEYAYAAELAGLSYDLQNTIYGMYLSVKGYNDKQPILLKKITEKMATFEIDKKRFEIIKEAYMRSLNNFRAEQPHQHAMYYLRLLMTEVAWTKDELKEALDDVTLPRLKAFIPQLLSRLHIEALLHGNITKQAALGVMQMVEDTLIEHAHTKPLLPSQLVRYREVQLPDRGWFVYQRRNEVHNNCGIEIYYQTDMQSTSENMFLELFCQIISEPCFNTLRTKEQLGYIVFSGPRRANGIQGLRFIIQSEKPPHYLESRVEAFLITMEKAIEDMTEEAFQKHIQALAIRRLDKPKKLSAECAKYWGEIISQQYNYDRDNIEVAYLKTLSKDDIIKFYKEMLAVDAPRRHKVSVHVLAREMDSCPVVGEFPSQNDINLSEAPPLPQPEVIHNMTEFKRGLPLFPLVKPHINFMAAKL

## CC[C@H](C)[C@@H]1NC(=O)[C@H](CCCNC(=N)N)NC(=O)[C@H](CC(=O)O)NC(=O)[C@H]([C@@H](C)CC)NC(=O)[C@H](CCCCN)NC(=O)[C@H](CCC(N)=O)NC(=O)CNC(=O)[C@H](Cc2ccccc2)NC(=O)[C@@H](NC(=O)[C@H](CO)NC(=O)[C@H](CO)NC(=O)[C@H](CO)NC(=O)[C@H](Cc2c[nH]cn2)NC(=O)[C@H](C)NC(=O)[C@H](CCSC)NC(=O)[C@H](CCCCN)NC(=O)[C@H](CO)NC(=O)[C@@H](N)CC(N)=O)CSSC[C@@H](C(=O)N[C@@H](CC(=O)O)C(=O)NCC(=O)N[C@@H](CC(C)C)C(=O)N[C@@H](CCCNC(=N)N)C(=O)N[C@@H](CC(C)C)C(=O)N[C@@H](Cc2ccccc2)C(=O)O)NC(=O)CNC(=O)[C@H](CC(C)C)NC(=O)[C@H](CCCNC(=N)N)NC(=O)[C@H](CO)NC(=O)[C@H](C(C)C)NC(=O)[C@H](C)NC(=O)CNC1=O [BNP, reference compound] (H-NSKMAHSSSCFGQKIDRIGAVSRLGCDGLRLF-OH; disulfide 10-26; N-terminus and C-terminus assumed)
[1]
  sensitivity towards proteolytic degradation by NEP: high sensitivity
[2]
  sensitivity towards proteolytic degradation by IDE: high sensitivity
